A word on the pKd: it is the Kd on a negative log10 scale, so that one unit is a factor of ten. Read a high pKd as a small Kd. As usually defined, the pIC50 is the negative decadic logarithm of the IC50, by convention in mol/L.

pIC50, pKd: −log10 of the molar value. Some results are limits rather than exact numbers.

The target in test [1] is T1, Integrin alpha-IIb/beta-3 (Homo sapiens, UniProt P05106+P08514). Kind of test: Competition with [1251]L-692,884 for binding to purified alpha IIb/beta3 integrin, activated by coating onto yttrium silicate scintillation proximity assay fluomicrospheres. It counts as protein-complex assay. For orientation: In a scintillation proximity assay essentially only radioactivity close to the scintillant gives light.
Target sequence in this assay (P05106 27-788 limits assumed): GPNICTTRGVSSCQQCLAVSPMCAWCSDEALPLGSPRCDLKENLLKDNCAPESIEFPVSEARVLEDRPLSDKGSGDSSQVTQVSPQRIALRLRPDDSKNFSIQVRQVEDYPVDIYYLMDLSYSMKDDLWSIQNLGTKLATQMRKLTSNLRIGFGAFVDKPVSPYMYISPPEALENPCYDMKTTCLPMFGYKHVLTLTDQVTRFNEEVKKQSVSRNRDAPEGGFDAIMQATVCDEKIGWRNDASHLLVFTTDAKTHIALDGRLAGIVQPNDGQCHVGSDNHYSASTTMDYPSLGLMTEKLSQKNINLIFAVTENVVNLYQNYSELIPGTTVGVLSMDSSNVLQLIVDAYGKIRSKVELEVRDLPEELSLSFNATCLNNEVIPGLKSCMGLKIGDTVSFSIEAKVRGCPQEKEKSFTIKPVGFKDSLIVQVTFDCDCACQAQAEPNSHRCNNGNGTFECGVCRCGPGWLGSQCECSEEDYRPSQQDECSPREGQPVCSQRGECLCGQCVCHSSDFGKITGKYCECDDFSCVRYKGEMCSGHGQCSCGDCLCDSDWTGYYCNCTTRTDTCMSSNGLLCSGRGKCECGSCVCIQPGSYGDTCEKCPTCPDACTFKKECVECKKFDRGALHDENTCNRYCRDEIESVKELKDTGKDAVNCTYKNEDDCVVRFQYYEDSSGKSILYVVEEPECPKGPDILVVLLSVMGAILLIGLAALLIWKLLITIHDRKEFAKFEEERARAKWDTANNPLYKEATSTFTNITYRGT
Target sequence in this assay (P08514 32-887 limits assumed): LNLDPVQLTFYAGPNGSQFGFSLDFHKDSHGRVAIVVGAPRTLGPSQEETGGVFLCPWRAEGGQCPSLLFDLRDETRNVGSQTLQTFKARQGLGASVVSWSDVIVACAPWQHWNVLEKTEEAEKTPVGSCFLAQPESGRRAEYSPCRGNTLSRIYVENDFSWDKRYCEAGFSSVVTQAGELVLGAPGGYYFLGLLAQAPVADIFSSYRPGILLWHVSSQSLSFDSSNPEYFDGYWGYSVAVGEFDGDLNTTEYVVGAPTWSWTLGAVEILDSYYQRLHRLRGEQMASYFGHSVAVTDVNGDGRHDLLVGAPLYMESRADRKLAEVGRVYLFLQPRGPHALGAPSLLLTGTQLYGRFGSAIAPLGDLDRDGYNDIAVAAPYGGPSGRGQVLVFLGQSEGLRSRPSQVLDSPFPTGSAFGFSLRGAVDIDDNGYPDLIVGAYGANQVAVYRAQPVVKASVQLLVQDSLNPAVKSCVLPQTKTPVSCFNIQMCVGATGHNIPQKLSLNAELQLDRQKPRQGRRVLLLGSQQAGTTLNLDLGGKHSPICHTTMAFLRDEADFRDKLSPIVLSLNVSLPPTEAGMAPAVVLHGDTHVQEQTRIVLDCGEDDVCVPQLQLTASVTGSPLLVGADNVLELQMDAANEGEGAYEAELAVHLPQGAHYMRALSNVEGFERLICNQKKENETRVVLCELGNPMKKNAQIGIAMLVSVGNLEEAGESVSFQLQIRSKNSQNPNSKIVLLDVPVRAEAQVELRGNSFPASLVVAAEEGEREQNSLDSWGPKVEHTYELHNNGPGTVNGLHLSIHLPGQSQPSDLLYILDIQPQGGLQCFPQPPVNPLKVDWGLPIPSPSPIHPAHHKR
Target sequence in this assay (P08514 891-1039 limits assumed): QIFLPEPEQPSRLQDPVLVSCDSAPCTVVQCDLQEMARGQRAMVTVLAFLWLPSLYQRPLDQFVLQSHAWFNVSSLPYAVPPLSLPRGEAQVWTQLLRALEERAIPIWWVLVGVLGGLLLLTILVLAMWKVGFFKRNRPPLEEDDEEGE

Test [2] deals with T1, Integrin alpha-IIb/beta-3. Kind of test: Selectivity as determined by the ratio of KDs, resting receptor over activated receptor. It counts as protein-complex assay.
The target in test [3] is T1, Integrin alpha-IIb/beta-3. Kind of test: Binding affinity to resting form of alpha IIb/beta3 integrin by flow cytometry using fluorescein ligand L-726,745 displacement from human platelets. On the technique in general: In flow cytometry, cells or beads pass a laser one at a time.
Target sequence in this assay (P05106 27-788 limits assumed): as the sequence (P05106 27-788 limits assumed) above
Target sequence in this assay (P08514 32-887 limits assumed): as the sequence (P08514 32-887 limits assumed) above
Target sequence in this assay (P08514 891-1039 limits assumed): as the sequence (P08514 891-1039 limits assumed) above
Test [4] is described as follows: Inhibition of aggregation of human gel-filtered platelets measured by light transmittance method at 37 degrees C.

Turning to `Cc1ccc(S(=O)(=O)N[C@@H](CNC(=O)c2cc3n(n2)CCCN(CCC2CCNCC2)C3=O)C(=O)O)cc1`, the negative logarithm of the Kd (pKd) in test [1] is 10.10. For the same compound, the Selectivity in test [2] was determined as 18.
Consider `O=C(NC[C@H](NS(=O)(=O)c1ccccc1)C(=O)O)c1ccc2c(c1)C(=O)N(CCC1CCNCC1)C2`, for which the pKd is 9.60 in test [1] and 8.51 in test [3]. Further, in test [2], the Selectivity stood at 12.
The compound `O=C(O)CCNC(=O)CN1CCc2ccc(N3CCNCC3)cc2C1=O` showed a pKd in test [1] of 8.01.
`C#C[C@H](CC(=O)O)NC(=O)CN1CCC[C@@H](CCC2CCNCC2)C1=O`: the figures for the pKd in test [1] and in test [3] were 9.07 and 6.68, respectively. Besides, in test [2], the Selectivity came out at 244.
The matching figures for `C#CC(CCCN1CCC[C@@H](CCC2CCNCC2)C1=O)CC(=O)O` (stereo partly specified): 8.05, 5.51 and 344.
The matching figures for `C#C[C@H](CC(=O)O)NC(=O)CN1CCc2ccc(N3CCNCC3)cc2C1=O`: 9.25, 7.30 and 89.
As to `O=C(CN1CCc2ccc(N3CCNCC3)cc2C1=O)NC[C@H](NS(=O)(=O)c1ccccc1)C(=O)O`, the pKd was 8.17 in test [1] and 7.89 in test [3]. Besides, the Selectivity in test [2] was found to be 1.9.
For `C#C[C@H](CC(=O)O)NC(=O)c1ccc2c(c1)C(=O)N(CCc1ccnc(N)c1)C2`, the pKd in test [1] is 8.66; in test [3], 7.08. The Selectivity in test [2] was found to be 38.
The matching figures for `O=C(O)C[C@H](NC(=O)CN1CCC[C@@H](CCC2CCNCC2)C1=O)c1cccnc1`: 9.42, 7.08 and 221.
On to `C#C[C@H](CC(=O)O)NC(=O)CN1CCC[C@@H](CCc2ccnc(N)c2)C1=O`, for which the pKd in test [1] was 9.11; in test [3], 6.47. The Selectivity in test [2] was 435.
For the compound `C[C@H](CC(=O)O)NC(=O)CN1CCC[C@@H](CCC2CCNCC2)C1=O`, the pKd in test [3] was 6.19. Moreover, the Selectivity in test [2] was found to be 140.
`O=C(O)CCNC(=O)c1cc2n(n1)CCCN(CCC1CCNCC1)C2=O` showed a pKd in test [1] of 7.34. Further, in test [2], the Selectivity is 14. The pIC50 in test [4] was 6.33.
Consider `C#CC(CC(=O)O)NC(=O)CN(C(=O)c1cccc(C2CCNCC2)c1)C1CC1` (stereo unspecified), for which the pKd in test [1] was 9.07; in test [3], 6.92. Moreover, in test [2], the Selectivity was found to be 141.
The matching figures for `C#C[C@H](CC(=O)O)NC(=O)C[C@H]1CCCN(CCC2CCNCC2)C1=O`: 9.47, 8.21 and 18.
In the case of `C#C[C@H](CC(=O)O)NC(=O)C[C@H]1CCCN(CCc2ccnc(N)c2)C1=O`, the pKd in test [1] is 9.59; in test [3] it was 7.22. The Selectivity in test [2] was 230.
For `O=C(O)CCNC(=O)c1ccc2c(c1)C(=O)N(CCC1CCNCC1)C2`, the pKd is 7.89 in test [1] and 6.92 in test [3]. The Selectivity in test [2] turned out to be 9. In test [4], this compound showed a pIC50 of 7.57.
With `O=C(O)C[C@H](NC(=O)C[C@H]1CCCN(CCC2CCNCC2)C1=O)c1cccnc1`, the negative-log Kd (pKd) in test [1] was 9.52; in test [3], 7.96. The Selectivity in test [2] came out at 37.
The matching figures for `O=C(NC[C@H](NS(=O)(=O)c1ccccc1)C(=O)O)c1cc2cc(OCCC3CCNCC3)ccc2[nH]1`: 10.25, 8.89 and 24.
Consider `CC(CC(=O)O)NC(=O)c1ccc2c(c1)C(=O)N(CCC1CCNCC1)C2` (stereo unspecified), for which the pKd in test [1] was 7.19; in test [3] it was 7.31. The Selectivity in test [2] was determined as 0.8.
The matching figures for `O=C(O)C[C@@H](CO)NC(=O)c1ccc2c(c1)C(=O)N(CCC1CCNCC1)C2`: 7.68, 7.33 and 2.
The matching figures for `O=C(CN1CCC[C@@H](CCC2CCNCC2)C1=O)NC[C@H](NS(=O)(=O)c1ccccc1)C(=O)O`: 9.11, 7.82 and 19.
The matching figures for `O=C(NC[C@H](NS(=O)(=O)c1ccccc1)C(=O)O)c1ccc(OCCC2CCNCC2)cc1`: 9.80, 8.62 and 15.
In the case of `C[C@@H](/C=C/CN1CCC[C@@H](CCC2CCNCC2)C1=O)CC(=O)O`, the pKd in test [1] was 7.92; in test [3] it was 5.64. Moreover, the Selectivity in test [2] amounted to 192.
`O=C(O)C[C@@H](CO)NC(=O)CN1CCc2ccc(N3CCNCC3)cc2C1=O`: the results for the pKd in test [1] and in test [3] were 7.82 and less than 6.00, respectively. For the same compound, the Selectivity in test [2] was greater than 67.
The matching figures for `O=C(O)C[C@H](NC(=O)CN1CCc2ccc(N3CCNCC3)cc2C1=O)c1cccnc1`: 9.60, 8.47 and 14.
`O=C(NC[C@H](NS(=O)(=O)c1ccccc1)C(=O)O)c1cc2cc(CCC3CCNCC3)sc2s1`: the pKd was 10.05 in test [1] and 8.68 in test [3]. Also, in test [2], the Selectivity stood at 23. For the same compound, the pIC50 in test [4] is 8.10.

For the origin of these results see ChEMBL document CHEMBL1133044, “Nonpeptide GPIIB/IIIA receptor antagonists. Part 21: C-6 flexibility and amide bond orientation are important factors in determining the affinity of compounds for activated or resting platelet receptors” (Bioorg Med Chem Lett, 2000).
